Measurements reported in patent US7029671B1, “Method for activating human antigen-presenting cells, activated human antigen-presenting cells, and use thereof” (Kirin Brewery Company, Limited, priority 1996, dated 2006).

Legend:
[1] = system: Human Peripheral Blood-derived APC; assay: Pharmacological Test 1: autologous MLR assay with human peripheral blood-derived APCs pretreated with KRN7000; format: cell-based; details: KRN7000 100 ng/mL, 40 hours; conclusion from autologous MLR
Method: This experiment was designed to study an effect of KRN7000 (Compound No.14, a representative glycoside compound of the invention) on APCs prepared from human peripheral blood. The APCs (mainly comprised of dendritic cells) derived from human peripheral blood were prepared essentially according to the method of Hsu et al. (supra). Briefly, human peripheral blood was layered over Ficoll-Paque and centrifuged at 2,000 rpm for 35 minutes to give a mononuclear cell fraction. A portion of the mononuclear cell fraction was suspended into PBS (Ca^++, Mg^++ free) supplemented with 5% of inactivated human AB serum. The resultant solution was layered over 50% Percol, and then centrifuged at 3,000 rpm for 20 minutes to give a high-density fraction. The high-density fraction was panned using a human γ-globulin-coated dish to remove FcR^+ cells therefrom (i.e., a monocyte-removed fraction). The resultant fraction was reacted with anti-CD3 monoclonal antibodies, anti-CD21 monoclonal antibodies and anti-CD56 monoclonal antibodies. […]
The APCs (5×10^4 cells/well) and the responder cells (1×10^5 cells/well) both prepared in the above steps were added to wells of a 96-well flat-bottomed plate, and then subjected to autologous MLR assay. […] The amount of the ^3H-TdR taken up into the cells was determined using a liquid scintillation counter. […]

[2] = system: Murine T cell lymphoma EL-4 cells; assay: Pharmacological Test 4: APC therapy of EL-4-bearing mice, survival period; format: in vivo, mouse
Method: To study an anti-tumor effect of murine spleen-derived APCs activated with KRN7000 on mice implanted with tumor cells, experiments were performed with BDF1 mice (6-week-old, female). All experiments included 6 mice per group. Murine T cell lymphoma EL-4 cells were injected intravenously into each mouse at a level of 1×10^5 cells/mouse (injection day: day 0). On day 1, the vehicle-pretreated APCs (V-APC) and the KRN7000-pretreated (100 ng/mL) APCs (KRN-APC) both prepared in the same manner as in Pharmacological Test 3 were each injected intravenously into the mice at a level of 5×10^5 cells/mouse. As a positive control, KRN7000 was injected intravenously into the mice at a dose of 100 μg/kg on days 1, 5 and 9. Each mouse was checked for a sign of life daily to determine its survival period.

[3] = system: Murine colon adenocarcinoma Colon26 cells; assay: Pharmacological Test 6: APC therapy of mice implanted intrasplenically with Colon26 cells, liver weight; format: in vivo, mouse
Method: The experiment was performed to study an anti-tumor effect of murine bone marrow-derived APCs activated with KRN7000 on mice implanted with tumor cells. All experiments were performed with CDF1 mice (6-week-old, female), which were divided into groups consisting of 5 mice. Murine colon adenocarcinoma Colon26 cells were implanted into each mouse intrasplenically at a level of 2×10^6 cells/mouse (inoculation day: day 0). On day 1, the vehicle-pretreated APCs (V-APC) and the KRN7000-pretreated (100 ng/mL) APCs (KRN-APC) both prepared in the same manner as in Pharmacological Test 5 were individually injected intravenously to the mice at a level of 8×10^5 cells/mouse. As a positive control, KRN7000 was injected intravenously to the mice at a dose of 100 μg/kg on days 1, 5 and 9. On day 14, the liver was removed from each of the mice and weighed. Here, the liver from the mouse that had not been implanted with the tumor cells was about 1 g. Accordingly, the substantial tumor weight was determined by subtracting 1 g from the weight of the liver of the tumor-implanted mouse.

[4] = system: Murine melanoma B16 cells; assay: Pharmacological Test 8: APC therapy of mice with subcutaneous B16 melanoma, tumor volume; format: in vivo, mouse; details: KRN7000 100 μg/kg i.v. on days 1, 5 and 9 (positive control)
Method: The experiment was performed with BDF1 mice (6-week-old, female), which were divided into groups consisting of 6 mice. Murine melanoma B16 cells were implanted subcutaneously into each mouse at a level of 1.5×10^6 cells/mouse (implantation day: day 0). Several types of pretreated APCs were prepared in the same manner as in Pharmacological Test 3, in which APCs were pretreated with a vehicle (DMSO, final concentration: 0.1%) (V-APC), with both the vehicle (DMSO, final concentration: 0.1%) and a B16-tumor cell lysate (V-T-APC), with KRN7000 (final concentration: 100 ng/mL) (KRN-APC), and with both KRN7000 (final concentration: 100 ng/mL) and a B16-tumor cell lysate (KRN-T-APC), respectively. Each of the pretreated APCs was injected intravenously into the mice at a dose of 5×10^5 cells/mouse on day 1. As a positive control, KRN7000 was injected intravenously into the mice at a dose of 100 μg/kg on days 1, 5 and 9. The volume of the subcutaneous tumor in each mouse was measured.

[5] = system: Human Peripheral Blood-derived APCs; assay: Pharmacological Test 9: allogeneic MLR assay with human peripheral blood monocyte-derived APCs cultured 3 days; format: cell-based; details: conclusion from Pharmacological Tests 9, 10 and 11; KRN7000 100 ng/mL
Method: A monocyte fraction was prepared from human peripheral blood mononuclear cells by Percol density-gradient centrifugation. The monocyte fraction was cultured in the presence or absence of GM-CSF (50 ng/mL) and IL-4 (100 ng/mL), and simultaneously either a vehicle (v; DMSO, 0.1%) or KRN7000 (KRN; 100 ng/mL) was added thereto. After culturing for 3 days, the cells were collected and washed with the medium 3 times to give V-APC, KRN-APC, V-APC-GM and KRN-APC-GM (where “GM” refers to the APCs cultured in the presence of GM-CSF and IL-4), which were then provided for use as APCs. As responder cells, human peripheral blood-derived FcR^− cells were used to perform allogeneic MLR assay.

[6] = system: Human Umbilibal Cord Blood-derived APC; assay: Pharmacological Test 12: autologous MLR assay with human umbilical cord blood monocyte-derived APCs; format: cell-based; details: KRN7000 100 ng/mL
Method: A monocyte fraction was prepared from human umbilical cord blood mononuclear cells by Percol density-gradient centrifugation. The monocyte fraction was cultured in the presence of GM-CSF (50 ng/mL) and IL-4 (100 ng/mL), and simultaneously either a vehicle (V; 0.1% DMSO) or KRN7000 (KRN; 100 ng/mL) was added thereto. After culturing for 3 days, the cells were recovered and washed with the medium 3 times to give V-APC-GM and KRN-APC-GM, respectively, which were provided for use as APCs. As response cells, human umbilical cord blood-derived FcR^− cells were used for autologous MLR assay.

[7] = system: dendritic cell-rich APCs prepared from the murine spleen; details: Koezuka 1995; Yamaguchi 1996; cited from earlier work
[8] = KRN7000 100 μg/kg i.v. 3 times versus KRN-APC once

CCCCCCCCCCCCCCCCCCCCCCCCCC(=O)N[C@@H](CO[C@H]1O[C@H](CO)[C@H](O)[C@H](O)[C@H]1O)[C@H](O)[C@H](O)CCCCCCCCCCCCCC [KRN7000, (2S,3S,4R)-1-(α-D-galactopyranosyloxy)-2-hexacosanoylamino-3,4-octadecanediol]
activating effect on APCs (antigen-presenting function enhancing effect) [1]: has an activating effect on the APCs prepared from human peripheral blood
survival period ([2]; EL-4 i.v. day 0, KRN7000 100 μg/kg i.v. on days 1, 5 and 9 (positive control)): remarkable increase in survival period
potency of the survival effect compared with one injection of KRN-APC [2, 8]: weaker than that when KRN-APC was injected only once
tumor growth inhibitory effect compared with one injection of KRN-APC [3, 8]: at the same level as that when KRN-APC was injected once
inhibitory effect on tumor growth (liver weight on day 14) ([3]; KRN7000 100 μg/kg i.v. on days 1, 5 and 9 (positive control)): remarkable inhibitory effect on tumor growth
tumor growth-inhibitory effect (volume of the subcutaneous tumor) [4]: tumor growth-inhibitory effect
activation of APCs from human peripheral blood [5]: can activate the APCs from human peripheral blood by various methods
activation of APCs derived from human umbilical cord blood [6]: can activate the APCs derived from human umbilical cord blood by various methods
enhancement of the functions of dendritic cell-rich APCs from murine spleen [7]: can enhance the functions of dendritic cell-rich APCs prepared from the murine spleen
